Literature values as cited in patent publication US20030129616A1, “Use of a mutation in the gene for the beta3-subunit of human g-protein” (priority 2000, published 2003).

System: bladder tumor cells

pertussis toxin
migration of bladder tumor cells: greatly inhibited
